Details of series [1]: method as in PMID 25392942. Particulars: after oral administration of WZC, healthy Chinese, plasma; cited from earlier work.
The subject of series [2] is CYP3A. Put plainly: IC50 shift assay in pooled HLMs (testosterone 6β-hydroxylation). Type of series: in vitro ADME. Particulars: human, pooled human liver microsomes, pH 7.4, probe testosterone (200 μM); for IC50 at 30 min / IC50: pooled HLMs; for IC50 at 30 min: 30 min preincubation with NADPH; for IC50: no preincubation. On the procedure:
Pooled HLMs were used in this assay to determine the IC50 shift and identify time-dependent inhibition. The experiment was divided into two groups, depending on preincubation status. […] In all samples, the final concentrations of organic solvents were not more than 1% (V/V). Schizandrol (A or B) was pre-incubated with the pooled HLMs and testosterone for 3 min at […]. In the groups without 30-minute preincubation, the reaction was started upon the addition of NADPH and terminated by 200 μL of ice-cooled methanol containing 0.315 μM of prednisolone (internal standard). […] Next, testosterone was added to initiate the reaction. The reaction was terminated with the same method. All experiments were carried out in triplicates.
The formation of 6β-hydroxytestosterone in a control group was used as a surrogate marker for remaining enzymes’ activity. […] IC50 shift value was determined by Equation (2). […] (2) IC50 shift=IC50 without NADPH preincubation/IC50 with NADPH preincubation
For orientation: Liver microsomes are a subcellular fraction often used to study metabolism.

The next series deals with CYP3A (pooled HLMs). Put plainly: Reversible inhibition (RI) assay, tacrolimus metabolism in pooled HLMs. The following applies: Dixon plot. It counts as in vitro ADME, human. As to the method:
(§1) The reactions started upon the addition of NADPH and were terminated after 10 min by adding 200 μL of ice-cooled acetonitrile containing 0.1 μM of ascomycin (internal standard). […] The reaction was also terminated with ice-cooled acetonitrile. All experiments were carried out in triplicates. […] The intersection of lines was used to calculate the Ki value.

In series [3] the target is CYP3A. As to the kind of experiment: Time-dependent inhibition (TDI) assay in pooled HLMs. It counts as in vitro ADME, human. Particulars: for kinact: human, pooled human liver microsomes, probe testosterone (200 μM), 6β-hydroxytestosterone formation. As to the method:
(§2) A two-step protocol was followed to perform the general TDI assay. […] The reaction was initiated upon addition of NADPH (1 mM). At the designated time points (0, 5, 10, 20, or 30 min), an aliquot (20 μL) of the incubation mixture was transferred to a 180-microliter pre-warmed solution containing PBS (0.1 M), testosterone (200 μM) and NADPH (1 mM) for another 10-minute incubation. […] For the CYP3A5 experiment, CYP3cide and CYP3A5 * 1/*3 HLMs were pre-warmed for 3 min before the reaction initiation. […] All experiments were carried out in triplicates.
(§3) [I] stands for the inhibitor concentration. A high ratio of kinact over KI indicates great inhibitory potency. (3) kobs=kinact×[I]/KI+[I]

Series [4] can be described thus: Intrinsic clearance in human liver microsomes (in-house data). Type of series: in vitro ADME. The following applies: read-out: CLint,HLM. The source says: All physicochemical and in vitro pharmacokinetic parameters were obtained from the literature or predicted by Simcyp® Simulator (version 16, Certara, Sheffield, U.K.). The intrinsic clearance value of pooled HLMs and human tacrolimus PBPK model was retrieved from our previous publication. The models for CYP3A5 expressers/non-expressers were built by modifying our established model with intrinsic clearance values of each CYP isoform. With the inhibitory parameters acquired from our experiments, a DDI module was incorporated into the PBPK model of tacrolimus.

Another series deals with T1, CYP3A4 (Homo sapiens, UniProt P08684).
T1 construct: replacing pooled HLMs with CYP3A5 * 3/*3 HLMs; tissue Transheep Co., Ltd. (Shanghai, China) lot: 0710253; host or cells: human liver microsomes, CYP3A5 *3/*3 genotype
Put plainly: Time-dependent inhibition (TDI) assay in CYP3A5 *3/*3 HLMs. Type of series: in vitro ADME. The following applies: for KI / kinact/KI: CYP3A4, genotyped HLMs; for kinact: human, CYP3A5 *3/*3 genotyped human liver microsomes, probe testosterone (200 μM), 6β-hydroxytestosterone formation. As to the method:
as §2, §3

The subject of series [5] is CYP3A. Put plainly: Reversible inhibition (RI) assay, tacrolimus metabolism in pooled HLMs. Particulars: human, pooled human liver microsomes, pH 7.4, probe tacrolimus (0.25, 0.5, 1, 2 μM), Dixon plot, tacrolimus substrate. Type of series: in vitro ADME, human. On the procedure:
as §1

A further series concerns the target T2, CYP3A5 (Homo sapiens, UniProt P20815).
T2 construct: For the CYP3A5 experiment, CYP3cide and CYP3A5 * 1/*3 HLMs were pre-warmed; tissue Transheep Co., Ltd. (Shanghai, China) lot: 0710232; host or cells: human liver microsomes, CYP3A5 *1/*3 genotype, treated with CYP3cide
Put plainly: Time-dependent inhibition (TDI) assay in CYP3A5 *1/*3 HLMs with CYP3cide. Type of series: in vitro ADME. On the procedure: as §2, with “incubation. The reaction was stopped with ice-cooled acetonitrile containing prednisolone (0.315 μM).” for “incubation.”
Kinetic parameters of the TDI (KI and kinact refer to the inhibitor concentration causing half-maximal inactivation and the maximal inactivation rate constant, respectively) were determined with Equation (3). kobs refers to the observed inactivation rate of the affected enzyme, determined by the negative slope of the linear regression. kinact is calculated with the negative reciprocal value of the straight line at the Y-intercept, while the interception on X-axis represents KI. [I] stands for the inhibitor concentration. A high ratio of kinact over KI indicates great inhibitory potency. (3) kobs=kinact×[I]/KI+[I]

In series [6] the target is T3, CYP3A4 (CYP3A5 *3/*3 HLMs) (Homo sapiens, UniProt P08684).
T3 construct: replacing pooled HLMs with CYP3A5 * 3/*3 HLMs; tissue Transheep Co., Ltd. (Shanghai, China) lot: 0710253; host or cells: human liver microsomes, CYP3A5 *3/*3 genotype
As to the kind of experiment: Reversible inhibition (RI) assay in genotyped HLMs. Particulars: Dixon plot, tacrolimus substrate. Type of series: in vitro ADME. As to the method:
(§4) The reactions started upon the addition of NADPH and were terminated after 10 min by adding 200 μL of ice-cooled acetonitrile containing 0.1 μM of ascomycin (internal standard). […] The reaction was also terminated with ice-cooled acetonitrile. All experiments were carried out in triplicates.
(§5) Linear regression implemented in GraphPad Prism was plotted with the reciprocal value of metabolic reaction rate (1/v) against inhibitor concentration. The intersection of lines was used to calculate the Ki value.

Details of series [7]: method as in PMID 32250458. The following applies: cited from earlier work.
On the set-up of series [8]: method as in PMID 24195812. The following applies: rats, oral administration of SZB; cited from earlier work.
Series [9] concerns the target T4, CYP3A5 (CYP3A5 *1/*3 HLMs + CYP3cide) (Homo sapiens, UniProt P20815).
T4 construct: For the CYP3A5 experiment, CYP3cide and CYP3A5 * 1/*3 HLMs were pre-warmed; tissue Transheep Co., Ltd. (Shanghai, China) lot: 0710232; host or cells: human liver microsomes, CYP3A5 *1/*3 genotype, treated with CYP3cide
Put plainly: Reversible inhibition (RI) assay in genotyped HLMs with CYP3cide. It counts as in vitro ADME. Particulars: Dixon plot, tacrolimus substrate. On the procedure: as §4, §5

Molecules are shown by their SMILES. “And” between values parts separate entries of the source, which are not always exact repeats. Equal entries are not always repeated.

In general, IC50 refers to the concentration needed to halve the response being measured. One may read the kinact/KI as the second-order rate constant of inactivation. The term kinact denotes the maximal first-order rate at which the target is inactivated. As usually defined, the Ki is the dissociation constant of the complex between target and ligand, obtained from inhibition or displacement.

T1 sequence (P08684 whole entry): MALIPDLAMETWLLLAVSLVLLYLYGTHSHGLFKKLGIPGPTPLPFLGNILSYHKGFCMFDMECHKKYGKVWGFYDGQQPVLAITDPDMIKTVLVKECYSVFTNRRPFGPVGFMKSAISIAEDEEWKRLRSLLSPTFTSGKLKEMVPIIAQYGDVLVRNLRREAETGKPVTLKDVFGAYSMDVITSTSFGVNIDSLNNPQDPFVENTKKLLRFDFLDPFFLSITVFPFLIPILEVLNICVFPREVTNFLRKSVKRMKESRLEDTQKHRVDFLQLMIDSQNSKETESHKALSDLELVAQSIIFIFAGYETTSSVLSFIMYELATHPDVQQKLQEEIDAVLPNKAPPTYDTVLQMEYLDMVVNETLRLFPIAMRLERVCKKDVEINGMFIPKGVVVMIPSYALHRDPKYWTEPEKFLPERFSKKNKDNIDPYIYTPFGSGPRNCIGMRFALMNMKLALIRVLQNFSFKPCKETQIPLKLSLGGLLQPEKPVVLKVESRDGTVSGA
T2 sequence (P20815 whole entry): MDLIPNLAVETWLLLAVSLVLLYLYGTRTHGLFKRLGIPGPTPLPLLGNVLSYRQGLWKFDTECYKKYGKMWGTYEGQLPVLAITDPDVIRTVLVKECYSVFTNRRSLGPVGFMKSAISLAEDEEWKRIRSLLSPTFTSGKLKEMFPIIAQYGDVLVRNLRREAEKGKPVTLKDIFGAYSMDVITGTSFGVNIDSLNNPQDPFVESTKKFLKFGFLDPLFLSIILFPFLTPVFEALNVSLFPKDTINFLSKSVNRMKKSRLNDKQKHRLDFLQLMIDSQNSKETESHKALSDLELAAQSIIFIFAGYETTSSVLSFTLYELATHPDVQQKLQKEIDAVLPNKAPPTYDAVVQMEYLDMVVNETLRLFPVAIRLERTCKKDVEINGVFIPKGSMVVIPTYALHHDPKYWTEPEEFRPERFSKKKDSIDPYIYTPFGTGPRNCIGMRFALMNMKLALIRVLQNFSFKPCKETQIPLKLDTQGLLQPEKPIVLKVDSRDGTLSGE

`COc1cc2c(c(OC)c1OC)-c1c(cc(OC)c(OC)c1OC)C[C@](C)(O)[C@@H](C)C2` [SZA, Schizandrol A]: in series [1], the “AUC, observed” value was 467.14 ng·h/mL; the “Cmax, observed” value was 111.37 ng/mL; the “Tmax, observed” value is given as 1.81 h. In addition, the IC50 shift at 30 min in the series with CYP3A [2] (IC50 without NADPH preincubation / IC50 with NADPH preincubation) came out at 1.57. Besides, in the series on CYP3A [2], the IC50 at 30 min came out at 40.5 µM and the IC50 came to 63.5 µM. In the series on CYP3A (pooled HLMs), the “reversible inhibition on CYP3A (pattern)” value is listed as “little reversible inhibition”. Moreover, at CYP3A [3], the KI was 15.625 µM, the kinact/KI was found to be 30.93 M⁻¹ s⁻¹ and the kinact is 0.000483 s⁻¹. Also, the microsomal CLint in [4] is 50 µL/min/mg. In addition, at CYP3A4, the KI came to 15.38 µM, the kinact/KI was determined as 26 M⁻¹ s⁻¹ and the kinact was 0.0004 s⁻¹.
On to `COc1cc2c(c(OC)c1OC)-c1c(cc3c(c1OC)OCO3)C[C@H](C)[C@@](C)(O)C2` [SZB, Schizandrol B], for which, in series [1], the “AUC, observed” value is 242.97 ng·h/mL; the “Cmax, observed” value is 65.18 ng/mL; the “Tmax, observed” value is 1.13 h. Moreover, in the series on CYP3A [2], the IC50 at 30 min came out at 0.56 µM and the IC50 worked out at 12 µM. Further, the Ki at 10 min with CYP3A [5] was determined as 5.82 µM. Moreover, the “reversible inhibition on CYP3A (pattern)” value with CYP3A (pooled HLMs) is “competitive and reversible inhibition pattern”. In addition, on CYP3A5 (CYP3A5, genotyped HLMs), the KI was 0.5 µM and the kinact/KI amounted to 300 M⁻¹ s⁻¹. In addition, the kinact on CYP3A5 (human, CYP3A5 *1/*3 genotyped human liver microsomes with CYP3cide, probe testosterone (200 μM), 6β-hydroxytestosterone formation, with CYP3cide (concentration not stated for this test)) is 0.00015 s⁻¹. Also, the Ki in series [6] is 2.18 µM and 2.03 µM. In addition, in series [7], the “increase in bosutinib exposure” value is recorded as 200%. The “increase in systemic exposure of tacrolimus” value in series [8] was 598.4%. At CYP3A [3], the KI was 0.43 µM, the kinact/KI came out at 1705.5 M⁻¹ s⁻¹ and the kinact is 0.000733 s⁻¹. Also, the Ki in series [9] is 2.03 µM and 2.18 µM. For the same compound, the microsomal CLint in series [4] is 4.5 µL/min/mg. For the same compound, at CYP3A4, the KI was found to be 0.69 µM, the kinact/KI turned out to be 8937 M⁻¹ s⁻¹ and the kinact was 0.00617 s⁻¹.
